Source: patent US8883963B2 (Cadila Healthcare Limited, priority 2007, dated 2014)
Non-standard residues stand in square brackets, D forms with d. Residues, ends and D or L forms follow the SMILES beside them. ξ: configuration not given here. *: point of attachment. X5 = CCc1cc(OC)ccc1-c1ccc(CC(N*)C(=S)NC(CCCc2ccccc2F)C(N)=O)cc1; Leu(5,5,5,5',5',5'-F6) = N[C@@H](CC(C(F)(F)F)C(F)(F)F)C(=O)O; ξBip(2'-Et-4'-OMe) = CCc1cc(OC)ccc1-c1ccc(CC(N)C(=O)O)cc1; ξNva(5-(3,5-Me2-Ph)) = Cc1cc(C)cc(CCCC(N)C(=O)O)c1; ξNva(5-(3-Cl-Ph)) = NC(CCCc1cccc(Cl)c1)C(=O)O; ξαMePhe(2-F) = CC(N)(Cc1ccccc1F)C(=O)O; aThr = C[C@H](O)[C@H](N)C(=O)O; Ac5c = NC1(C(=O)O)CCCC1; Aib = CC(C)(N)C(=O)O

Tests used:
DPP IV = DPP IV (Homo sapiens, UniProt P27487); test: Stability against DPP IV enzyme; type: in vitro ADME; details: 37° C.; for % degradation of peptidomimetics in 24 h when incubated with DPP-IV enzyme: 2 μM peptidomimetic; for half-life at 2 μM: DPP IV enzyme, pH 7.8, 2 μM peptidomimetic, read-out: half-life (t1/2) when incubated with DPP-IV enzyme
Chain of DPP IV (P27487 whole entry, species assumed): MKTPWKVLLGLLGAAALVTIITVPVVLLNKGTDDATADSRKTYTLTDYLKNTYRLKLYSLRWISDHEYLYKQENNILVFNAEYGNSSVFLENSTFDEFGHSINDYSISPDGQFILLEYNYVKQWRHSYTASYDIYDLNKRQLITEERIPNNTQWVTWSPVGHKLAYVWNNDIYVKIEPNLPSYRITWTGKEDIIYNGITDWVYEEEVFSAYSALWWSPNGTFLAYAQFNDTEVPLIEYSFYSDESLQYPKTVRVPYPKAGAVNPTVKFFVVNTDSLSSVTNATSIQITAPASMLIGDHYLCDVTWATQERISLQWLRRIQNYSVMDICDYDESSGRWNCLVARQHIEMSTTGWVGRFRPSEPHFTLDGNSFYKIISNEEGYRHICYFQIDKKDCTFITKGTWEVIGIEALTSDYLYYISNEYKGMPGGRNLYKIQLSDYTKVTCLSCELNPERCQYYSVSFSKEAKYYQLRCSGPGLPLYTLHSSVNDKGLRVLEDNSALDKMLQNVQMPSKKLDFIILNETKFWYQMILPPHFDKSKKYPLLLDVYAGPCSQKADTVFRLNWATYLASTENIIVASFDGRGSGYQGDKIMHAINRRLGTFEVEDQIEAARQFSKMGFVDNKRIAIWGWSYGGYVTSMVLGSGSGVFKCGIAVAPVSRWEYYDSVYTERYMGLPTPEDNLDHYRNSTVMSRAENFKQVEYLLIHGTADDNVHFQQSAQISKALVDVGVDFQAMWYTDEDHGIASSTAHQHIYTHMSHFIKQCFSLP
Method: (§1) Reactions were terminated by the addition of TFA/H2O (15 mL, 10% (v/v)). […] The column was equilibrated with TFA/H20, at a flow rate of 1 mL/min.

[1] = Stability in human plasma; type: in vitro ADME; details: 2 μM peptidomimetic, pooled human plasma, 37° C.; for half-life at 2 μM: pH 7.8, read-out: half-life (t1/2) when incubated with human plasma
Method: as §1

[2] = Stability in simulated gastric fluid; type: in vitro ADME; details: 2 μM peptidomimetic, simulated gastric fluid pH 1.5, 37° C.; for half-life at 2 μM: read-out: half-life (t1/2) when incubated with simulated gastric fluid
Method: as §1

[3] = Stability in simulated intestinal fluid; type: in vitro ADME; details: 2 μM peptidomimetic, simulated intestinal fluid pH 7.5, 37° C.
Method: as §1

[4] = Stability in liver microsomes; type: in vitro ADME; details: 2 μM peptidomimetic, human liver microsomes, 37° C.; for half-life at 2 μM: pH 7.8, read-out: half-life (t1/2) when incubated with liver microsomes
Method: as §1

[5] = test system: RIN5F (Rat Insulinoma) cells; test: In vitro glucose-dependent insulin secretion (RIN5F cell assay screening protocol); type: cell-based; details: 16.7 mM glucose load
Method: RIN5F (Rat Insulinoma) cells were cultured in RPMI 1640 medium supplemented with sodium pyruvate (1 mM) HEPES and Glucose (4.5 g/L) in a humidified incubator (5% CO2), at 37° C. After trypsinization, RIN5F cells were seeded at a concentration of 0.2×10^6 cells per well, in 12 well plates.
The buffer was replaced after 40 min. and the cells were incubated (37° C.) with the test peptidomimetics, at different concentration, for 30 min., both in the presence (16.7 mM) and absence (0 mM) of glucose load. The supernatant was collected and the insulin amount was measured by ultra sensitive Rat insulin ELISA kit (Crystal Chem, IL). The protein was estimated in the supernatant using Bicinchoninic Acid kit, according to the manufacturer's protocol (Sigma Aldrich, MO). The total insulin content obtained in Pico-gram (pg) was divided with the total protein (μg) in order to normalize for differences in cell density between wells.

human glucagon receptor = molecular target: T1, human glucagon receptor (Homo sapiens, UniProt P47871); test: In vitro human glucagon antagonist activity (inhibition of cAMP production) in CHO/human glucagon R cells; type: cell-based; details: with saturated concentration of glucagon peptide
T1 construct: The full-length cDNA was cloned in pcDNA3.1 (Invitrogen); expressed in transfected cells
T1 sequence (P47871 26-477): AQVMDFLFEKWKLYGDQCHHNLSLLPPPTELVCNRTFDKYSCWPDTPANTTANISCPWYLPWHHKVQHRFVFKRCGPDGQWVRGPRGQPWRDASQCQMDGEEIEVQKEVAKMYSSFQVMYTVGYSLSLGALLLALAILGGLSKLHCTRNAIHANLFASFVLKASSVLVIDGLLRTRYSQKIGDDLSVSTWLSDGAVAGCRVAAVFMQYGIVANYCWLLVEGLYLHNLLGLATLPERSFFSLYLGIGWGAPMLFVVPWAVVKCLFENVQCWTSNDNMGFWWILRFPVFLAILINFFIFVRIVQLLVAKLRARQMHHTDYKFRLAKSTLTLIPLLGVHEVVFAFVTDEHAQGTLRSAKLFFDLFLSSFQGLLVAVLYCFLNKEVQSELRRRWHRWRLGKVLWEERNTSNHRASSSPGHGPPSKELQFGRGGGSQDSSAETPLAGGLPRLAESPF

CCc1cc(OC)ccc1-c1ccc(CC(NC(=O)[C@H](CC(=O)O)NC(=O)[C@H](CO)NC(=O)[C@@H](NC(=O)[C@H](Cc2ccccc2)NC(=O)[C@@H](NC(=O)CNC(=O)[C@H](CCC(N)=O)NC(=O)C2(C)CCCN2C(=O)[C@@H](N)Cc2c[nH]cn2)[C@@H](C)O)[C@@H](C)O)C(=O)NC(CCCc2ccc(Cl)cc2C)C(N)=O)cc1 (single isomer, unassigned) [compound 12]
% degradation of peptidomimetics in 24 h when incubated with DPP-IV enzyme (DPP IV): 76%
half-life at 2 μM (DPP IV): 540 min
% degradation of peptidomimetics in 24 h when incubated with human plasma [1]: 78%
half-life at 2 μM [1]: 480 min
half-life (t1/2) when incubated with simulated gastric fluid [2]: (8) h
% degradation of peptidomimetics in 24 h when incubated with simulated gastric fluid [2]: 14%
half-life (t1/2) when incubated with simulated intestinal fluid [3]: (6) h
% degradation of peptidomimetics in 24 h when incubated with simulated intestinal fluid [3]: 43%
% degradation of peptidomimetics in 24 h when incubated with liver microsomes [4]: 80%
half-life at 2 μM [4]: 60 min

CCc1cc(OC)ccc1-c1ccc(CC(NC(=O)[C@H](CC(=O)O)NC(=O)[C@H](CO)NC(=O)[C@@H](NC(=O)[C@H](Cc2ccccc2)NC(=O)[C@@H](NC(=O)CNC(=O)[C@H](CCC(N)=O)NC(=O)C2(NC(=O)[C@@H](N)Cc3c[nH]cn3)CC2)[C@@H](C)O)[C@@H](C)O)C(=O)NC(CCCc2ccc(F)cc2F)C(N)=O)cc1 (single isomer, unassigned) [compound 70]
% degradation of peptidomimetics in 24 h when incubated with DPP-IV enzyme (DPP IV): 70%
half-life at 2 μM (DPP IV): 540 min
% degradation of peptidomimetics in 24 h when incubated with human plasma [1]: 71%
half-life at 2 μM [1]: 480 min
half-life (t1/2) when incubated with simulated gastric fluid [2]: (8) h
% degradation of peptidomimetics in 24 h when incubated with simulated gastric fluid [2]: 14%
half-life (t1/2) when incubated with simulated intestinal fluid [3]: (6) h
% degradation of peptidomimetics in 24 h when incubated with simulated intestinal fluid [3]: 40%
% degradation of peptidomimetics in 24 h when incubated with liver microsomes [4]: 78%
half-life at 2 μM [4]: 60 min

CCc1cc(OC)ccc1-c1ccc(CC(CNC(CCCc2ccccc2)C(N)=O)NC[C@H](CC(=O)O)NC(=O)[C@H](CO)NC(=O)[C@@H](NC(=O)C(C)(Cc2ccccc2F)NC(=O)[C@@H](NC(=O)CNC(=O)[C@H](CCC(N)=O)NC(=O)C(C)(C)NC(=O)[C@@H](N)Cc2c[nH]cn2)[C@H](C)O)[C@H](C)O)cc1 (single isomer, unassigned) [compound 201]
% degradation of peptidomimetics in 24 h when incubated with DPP-IV enzyme (DPP IV): 00%
half-life at 2 μM (DPP IV): > 1440 min
% degradation of peptidomimetics in 24 h when incubated with human plasma [1]: 00%
half-life at 2 μM [1]: > 1440 min
% degradation of peptidomimetics in 24 h when incubated with simulated gastric fluid [2]: 43%
half-life at 2 μM [2]: 240 min
% degradation of peptidomimetics in 24 h when incubated with simulated intestinal fluid [3]: 00%
half-life at 2 μM ([3]; read-out: half-life (t1/2) when incubated with simulated intestinal fluid): > 1440 min
% degradation of peptidomimetics in 24 h when incubated with liver microsomes [4]: 84%
half-life at 2 μM [4]: 120 min

CCc1cc(OC)ccc1-c1ccc(CC(NC(=O)[C@H](CC(=O)O)NC(=O)[C@H](CO)NC(=O)[C@@H](NC(=O)C(C)(Cc2ccccc2F)NC(=O)[C@@H](NC(=O)CNC(=O)[C@H](CC(C(F)(F)F)C(F)(F)F)NC(=O)C(C)(C)NC(=O)[C@@H](N)Cc2c[nH]cn2)[C@@H](C)O)[C@H](C)O)C(=O)NC(CCCc2ccccc2)C(N)=O)cc1 (single isomer, unassigned) [compound 225]
Insulin secretion ([5]; 0.1 nM test compd.): 12.4 ± 0.22 pg/µg/h
Insulin secretion ([5]; 1 nM test compd.): 15.2 ± 0.32 pg/µg/h
Insulin secretion ([5]; 10 nM test compd.): 29.6 ± 0.50 pg/µg/h
Human Glucagon receptor antagonistic activity shown as inhibition of cAMP production of Glucagon peptide (human glucagon receptor; 1 nM test compound): 5 ± 0.01 pmol/ml/μg prt
Human Glucagon receptor antagonistic activity shown as inhibition of cAMP production of Glucagon peptide (human glucagon receptor; 10 nM test compound): 2 ± 0.17 pmol/ml/μg prt
Human Glucagon receptor antagonistic activity shown as inhibition of cAMP production of Glucagon peptide (human glucagon receptor; 100 nM test compound): 0 pmol/ml/μg prt
Human Glucagon receptor antagonistic activity shown as inhibition of cAMP production of Glucagon peptide (human glucagon receptor; 1 μM test compound): 0 pmol/ml/μg prt
Human Glucagon receptor antagonistic activity shown as inhibition of cAMP production of Glucagon peptide (human glucagon receptor; 10 μM test compound): 0 pmol/ml/μg prt

CCc1cc(OC)ccc1-c1ccc(CC(NC(=O)[C@H](CC(=O)O)NC(=O)[C@H](CO)NC(=O)[C@@H](NC(=O)C(C)(Cc2ccccc2F)NC(=O)[C@@H](NC(=O)CNC(=O)[C@H](CC(C(F)(F)F)C(F)(F)F)NC(=O)C(C)(C)NC(=O)[C@@H](N)Cc2c[nH]cn2)[C@@H](C)O)[C@@H](C)O)C(=O)NC(CCCc2ccc(Cl)cc2C)C(N)=O)cc1 (single isomer, unassigned) [compound 237]
Insulin secretion ([5]; 0.1 nM test compd.): 12.0 ± 0.14 pg/µg/h
Insulin secretion ([5]; 1 nM test compd.): 14.3 ± 0.12 pg/µg/h
Insulin secretion ([5]; 10 nM test compd.): 27.8 ± 0.32 pg/µg/h
Human Glucagon receptor antagonistic activity shown as inhibition of cAMP production of Glucagon peptide (human glucagon receptor; 1 nM test compound): 21 ± 0.11 pmol/ml/μg prt
Human Glucagon receptor antagonistic activity shown as inhibition of cAMP production of Glucagon peptide (human glucagon receptor; 10 nM test compound): 19 ± 0.02 pmol/ml/μg prt
Human Glucagon receptor antagonistic activity shown as inhibition of cAMP production of Glucagon peptide (human glucagon receptor; 100 nM test compound): 18 ± 0.07 pmol/ml/μg prt
Human Glucagon receptor antagonistic activity shown as inhibition of cAMP production of Glucagon peptide (human glucagon receptor; 1 μM test compound): 18 ± 0.03 pmol/ml/μg prt
Human Glucagon receptor antagonistic activity shown as inhibition of cAMP production of Glucagon peptide (human glucagon receptor; 10 μM test compound): 16 ± 0.02 pmol/ml/μg prt

CCc1cc(OC)ccc1-c1ccc(CC(NC(=O)[C@H](CC(=O)O)NC(=O)[C@H](CO)NC(=O)[C@@H](NC(=O)[C@H](Cc2ccccc2)NC(=O)[C@@H](NC(=O)CNC(=O)[C@H](CCC(N)=O)NC(=O)[C@H](CO)NC(=O)[C@@H](N)Cc2c[nH]cn2)[C@@H](C)O)[C@@H](C)O)C(=O)NC(CCCc2cccc(Cl)c2)C(N)=O)cc1 (stereo partly drawn) [compound 7] (H-HSQGTFTSD[ξBip(2'-Et-4'-OMe)][ξNva(5-(3-Cl-Ph))]-NH2)
% degradation of peptidomimetics in 24 h when incubated with DPP-IV enzyme (DPP IV): 71%
half-life at 2 μM (DPP IV): 480 min
% degradation of peptidomimetics in 24 h when incubated with human plasma [1]: 69%
half-life at 2 μM [1]: 480 min
% degradation of peptidomimetics in 24 h when incubated with simulated gastric fluid [2]: 11%
half-life at 2 μM [2]: 420 min
half-life (t1/2) when incubated with simulated intestinal fluid [3]: (6) h
% degradation of peptidomimetics in 24 h when incubated with simulated intestinal fluid [3]: 43%
% degradation of peptidomimetics in 24 h when incubated with liver microsomes [4]: 77%
half-life at 2 μM [4]: 120 min

CCc1cc(OC)ccc1-c1ccc(CC(NC(=O)[C@H](CC(=O)O)NC(=O)[C@H](CO)NC(=O)[C@@H](NC(=O)[C@H](Cc2ccccc2)NC(=O)[C@@H](NC(=O)CNC(=O)[C@H](CCC(N)=O)NC(=O)C2(NC(=O)[C@@H](N)Cc3c[nH]cn3)CCCC2)[C@@H](C)O)[C@@H](C)O)C(=O)NC(CCCc2cc(C)cc(C)c2)C(N)=O)cc1 (stereo partly drawn) [compound 26] (H-H[Ac5c]QGTFTSD[ξBip(2'-Et-4'-OMe)][ξNva(5-(3,5-Me2-Ph))]-NH2)
Insulin secretion ([5]; 0.1 nM test compd.): 16.6 ± 0.41 pg/µg/h
Insulin secretion ([5]; 1 nM test compd.): 22.9 ± 0.32 pg/µg/h
Insulin secretion ([5]; 10 nM test compd.): 36.6 ± 0.19 pg/µg/h
Human Glucagon receptor antagonistic activity shown as inhibition of cAMP production of Glucagon peptide (human glucagon receptor; 1 nM test compound): 15 ± 0.11 pmol/ml/μg prt
Human Glucagon receptor antagonistic activity shown as inhibition of cAMP production of Glucagon peptide (human glucagon receptor; 10 nM test compound): 12 ± 0.13 pmol/ml/μg prt
Human Glucagon receptor antagonistic activity shown as inhibition of cAMP production of Glucagon peptide (human glucagon receptor; 100 nM test compound): 8 ± 0.09 pmol/ml/μg prt
Human Glucagon receptor antagonistic activity shown as inhibition of cAMP production of Glucagon peptide (human glucagon receptor; 1 μM test compound): 4 ± 0.01 pmol/ml/μg prt
Human Glucagon receptor antagonistic activity shown as inhibition of cAMP production of Glucagon peptide (human glucagon receptor; 10 μM test compound): 2 ± 0.08 pmol/ml/μg prt

CCc1cc(OC)ccc1-c1ccc(CC(NC(=O)[C@H](CC(=O)O)NC(=O)[C@H](CO)NC(=O)[C@@H](NC(=O)C(C)(Cc2ccccc2F)NC(=O)[C@@H](NC(=O)CNC(=O)[C@H](CC(C(F)(F)F)C(F)(F)F)NC(=O)C(C)(C)NC(=O)[C@@H](N)Cc2c[nH]cn2)[C@H](C)O)[C@H](C)O)C(=S)NC(CCCc2ccccc2F)C(N)=O)cc1 (stereo partly drawn) [compound 218] (H-H[Aib][Leu(5,5,5,5',5',5'-F6)]G[aThr][ξαMePhe(2-F)][aThr]SD-X5)
Insulin secretion ([5]; 0.1 nM test compd.): 12.3 ± 0.33 pg/µg/h
Insulin secretion ([5]; 1 nM test compd.): 14.8 ± 0.16 pg/µg/h
Insulin secretion ([5]; 10 nM test compd.): 28.1 ± 0.22 pg/µg/h
Human Glucagon receptor antagonistic activity shown as inhibition of cAMP production of Glucagon peptide (human glucagon receptor; 1 nM test compound): 9 ± 0.11 pmol/ml/μg prt
Human Glucagon receptor antagonistic activity shown as inhibition of cAMP production of Glucagon peptide (human glucagon receptor; 10 nM test compound): 6 ± 0.12 pmol/ml/μg prt
Human Glucagon receptor antagonistic activity shown as inhibition of cAMP production of Glucagon peptide (human glucagon receptor; 100 nM test compound): 5 ± 0.14 pmol/ml/μg prt
Human Glucagon receptor antagonistic activity shown as inhibition of cAMP production of Glucagon peptide (human glucagon receptor; 1 μM test compound): 3 ± 0.22 pmol/ml/μg prt
Human Glucagon receptor antagonistic activity shown as inhibition of cAMP production of Glucagon peptide (human glucagon receptor; 10 μM test compound): 0 pmol/ml/μg prt
